Results taken from patent US9796742B2, “Kinase inhibitors” (Respivert Limited, priority 2012, dated 2017).

Assays:
p38 MAPKα = p38 MAPKα (Homo sapiens (Human), UniProt Q16539); assay: p38 MAPKα enzyme inhibition (FRET, Z-LYTE; Method 2); assay type: biochemical
Method: (§1) The enzyme inhibitory activities of compounds disclosed herein are determined by FRET using synthetic peptides labelled with both donor and acceptor fluorophores (Z-LYTE, Invitrogen Ltd., Paisley, UK).
The inhibitory activities of test compounds against the p38 MAPKα isoform (MAPK14: Invitrogen), are evaluated indirectly by determining the level of activation/phosphorylation of the down-stream molecule, MAPKAP-K2. The p38 MAPKα protein (80 ng/mL, 2.5 μL) is mixed with the test compound (2.5 μL of either 4 μg/mL, 0.4 μg/mL, 0.04 μg/mL or 0.004 μg/mL) for 2 hr at RT. […] The mixture is incubated for 1 hr at RT. Development reagent (protease, 5 μL) is added for 1 hr prior to detection in a fluorescence microplate reader (Varioskan® Flash, ThermoFisher Scientific).
Method 2 This method follows the same steps as Method 1 above, but utilises a higher concentration of the p38 MAPKα protein (2.5 μL of 200 ng/mL protein instead of 2.5 μL of 80 ng/mL protein) for mixing with the test compound.
(§2) In all cases, the site-specific protease cleaves non-phosphorylated peptide only and eliminates the FRET signal. Phosphorylation levels of each reaction are calculated using the ratio of coumarin emission (donor) over fluorescein emission (acceptor), for which high ratios indicate high phosphorylation and low ratios indicate low phosphorylation levels. The percentage inhibition of each reaction is calculated relative to non-inhibited control and the 50% inhibitory concentration (IC50 value) is then calculated from the concentration-response curve.

c-Src = c-Src (Homo sapiens (Human), UniProt P12931); assay: c-Src enzyme inhibition (FRET, Z-LYTE); assay type: biochemical
Method: as §1
(§3) The inhibitory activities of compounds of the invention against c-Src and Syk enzymes (Invitrogen), are evaluated in a similar fashion to that described hereinabove. The relevant enzyme (3000 ng/mL or 2000 ng/mL respectively, 2.5 μL) is incubated with the test compound (either 4 μg/mL, 0.4 μg/mL, 0.04 μg/mL, or 0.004 μg/mL, 2.5 μL each) for 2 hr at RT. The FRET peptides (8 μM. 2.5 μL), and appropriate ATP solutions (2.5 μL, 800 μM for c-Src, and 60 μM ATP for Syk) are then added to the enzymes/compound mixtures and incubated for 1 hr. Development reagent (protease, 5 μL) is added for 1 hr prior to detection in a fluorescence microplate reader (Varioskan® Flash, ThermoFisher Scientific).
as §2

Syk = Syk (Homo sapiens (Human), UniProt P43405); assay: Syk enzyme inhibition (FRET, Z-LYTE); assay type: biochemical
Method: as §1, §3, §2

GSK3α = GSK3α (Homo sapiens (Human), UniProt P49840); assay: GSK 3α enzyme inhibition (FRET, Z-LYTE; Method 2); assay type: biochemical
Method: as §1
The inhibitory activities of compounds of the invention against the GSK 3α enzyme isoform (Invitrogen), are evaluated by determining the level of activation/phosphorylation of the target peptide. The GSK3-α protein (500 ng/mL, 2.5 μL) is mixed with the test compound (2.5 μL at either 4 μg/mL, 0.4 μg/mL, 0.04 μg/mL, or 0.004 μg/mL) for 2 hr at RT. The FRET peptide (8 μM, 2.5 μL), which is a phosphorylation target for GSK3α, and ATP (40 μM, 2.5 μL) are then added to the enzyme/compound mixture and the resulting mixture incubated for 1 hr. Development reagent (protease, 5 μL) is added for 1 hr prior to detection in a fluorescence microplate reader (Varioskan® Flash, ThermoFisher Scientific).
as §2
This method follows the same steps as Method 1 above, but utilises a shorter period of mixing of the test compound (105 minutes instead of 2 hours) with the GSK3-α protein.

PBMCs [1] = assay: LPS-induced TNFα/IL-8 release in PBMC cells; assay type: cell-based; conditions: Homo sapiens, LPS-stimulated PBMCs, IL-8, read-out: IC50 Values for Inhibition of Cytokine Release, PBMCs IL-8
Method: Peripheral blood mononuclear cells (PBMCs) from healthy subjects are separated from whole blood using a density gradient (Lymphoprep, Axis-Shield Healthcare). The PBMCs are seeded in 96 well plates and treated with compounds at the desired concentration for 2 hours before addition of 1 ng/mL LPS (Escherichia Coli 0111:B4 from Sigma Aldrich) for 24 hours under normal tissue culture conditions (37° C., 5% CO2). The supernatant is harvested for determination of IL-8 and TNFα concentrations by sandwich ELISA (Duo-set, R&D systems) and read on the fluorescence microplate reader (Varioskan® Flash, ThermoFisher Scientific). The concentration at 50% inhibition (IC50) of IL-8 and TNFα production is calculated from the dose response curve.

PBMCs [2] = assay: IL-2 and IFN gamma release in CD3/CD28 stimulated PBMC cells; assay type: cell-based; conditions: Homo sapiens
Method: PBMCs from healthy subjects are separated from whole blood using a density gradient (Lymphoprep, Axis-Shield Healthcare). Cells are added to a 96 well plate pre-coated with a mixture of CD3/[…] monoclonal antibodies (0.3 μg/mL eBioscience and 3 μg/mL BD Pharmingen respectively). Compound at the desired concentration is then added to the wells and the plate left for 3 days under normal tissue culture conditions. Supernatants are harvested and IL-2 and IFN gamma release determined by Sandwich ELISA (Duo-set, R&D System). The IC50 is determined from the dose response curve.

[3] = IL-2, read-out: IC50 Values for Inhibition of Cytokine Release, PBMCs IL-2

Sequence of p38 MAPKα (Q16539 whole entry): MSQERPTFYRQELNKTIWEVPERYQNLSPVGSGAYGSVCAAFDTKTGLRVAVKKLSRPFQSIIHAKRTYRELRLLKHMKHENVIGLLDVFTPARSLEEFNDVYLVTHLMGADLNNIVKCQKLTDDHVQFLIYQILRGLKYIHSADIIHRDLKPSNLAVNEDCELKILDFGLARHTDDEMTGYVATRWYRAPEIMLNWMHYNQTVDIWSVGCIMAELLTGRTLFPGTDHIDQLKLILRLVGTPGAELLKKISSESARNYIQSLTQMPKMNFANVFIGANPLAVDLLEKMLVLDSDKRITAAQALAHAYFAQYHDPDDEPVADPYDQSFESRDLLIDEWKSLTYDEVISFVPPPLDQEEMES
Sequence of GSK3α (P49840 whole entry): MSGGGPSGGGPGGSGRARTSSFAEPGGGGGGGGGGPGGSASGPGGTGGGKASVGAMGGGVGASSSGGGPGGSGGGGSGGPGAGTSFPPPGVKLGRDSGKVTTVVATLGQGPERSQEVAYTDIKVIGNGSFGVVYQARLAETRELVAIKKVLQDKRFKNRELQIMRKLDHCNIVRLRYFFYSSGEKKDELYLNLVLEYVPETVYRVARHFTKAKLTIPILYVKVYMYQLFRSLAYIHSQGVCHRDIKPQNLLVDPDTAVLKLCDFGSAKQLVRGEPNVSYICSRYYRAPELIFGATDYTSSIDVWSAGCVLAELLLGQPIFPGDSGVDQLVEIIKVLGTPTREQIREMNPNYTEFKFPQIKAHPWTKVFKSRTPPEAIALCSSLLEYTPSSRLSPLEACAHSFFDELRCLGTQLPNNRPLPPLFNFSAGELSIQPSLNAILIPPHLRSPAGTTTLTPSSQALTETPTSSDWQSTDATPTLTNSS
Sequence of c-Src (P12931 whole entry, looked up): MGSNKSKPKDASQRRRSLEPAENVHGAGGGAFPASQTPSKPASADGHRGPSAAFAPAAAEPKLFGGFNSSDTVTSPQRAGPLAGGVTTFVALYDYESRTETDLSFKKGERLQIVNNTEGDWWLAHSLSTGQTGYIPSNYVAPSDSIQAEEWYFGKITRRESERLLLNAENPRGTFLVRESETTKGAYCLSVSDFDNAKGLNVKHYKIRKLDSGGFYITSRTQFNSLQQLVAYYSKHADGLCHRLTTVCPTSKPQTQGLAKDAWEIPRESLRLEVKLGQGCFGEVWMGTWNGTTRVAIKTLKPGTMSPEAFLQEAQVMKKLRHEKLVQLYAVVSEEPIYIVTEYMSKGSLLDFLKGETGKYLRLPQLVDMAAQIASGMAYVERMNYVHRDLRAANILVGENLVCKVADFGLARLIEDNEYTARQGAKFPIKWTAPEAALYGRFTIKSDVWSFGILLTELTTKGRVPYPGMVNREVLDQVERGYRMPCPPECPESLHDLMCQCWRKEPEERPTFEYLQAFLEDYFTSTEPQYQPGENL

CC(C)(C)c1cc(NC(=O)Nc2ccc(Oc3ccnc(Nc4ccc(S(F)(F)(F)(F)F)cc4)n3)c3ccccc23)n(-c2ccc(P(C)(C)=O)cc2)n1 [Example 28, 1-(3-(tert-Butyl)-1-(4-(dimethylphosphoryl)phenyl)-1H-pyrazol-5-yl)-3-(4-((2-((4-(Pentafluorothio)phenyl)amino)pyrimidin-4-yl)oxy)naphthalen-1-yl)urea]
IC50 (p38 MAPKα): > 1000 nM | IC50 (c-Src): 372 nM | IC50 (Syk): 884 nM | IC50 (GSK3α): > 10000 nM | IC50 (PBMCs [1]): 214 nM

CC(C)(C)c1cc(NC(=O)Nc2ccc(Oc3ccnc(Sc4ccccc4)n3)c3ccccc23)n(-c2ccc(P(C)(C)=O)cc2)n1 [Example 29, 1-(3-(tert-Butyl)-1-(4-(dimethylphosphoryl)phenyl)-1H-pyrazol-5-yl)-3-(4-((2-(phenylthio)-pyrimidin-4-yl)oxy)naphthalen-1-yl)urea]
IC50 (p38 MAPKα): 149 nM | IC50 (c-Src): > 1000 nM | IC50 (Syk): > 1000 nM | IC50 (GSK3α): > 10000 nM | IC50 (PBMCs [1]): 150 nM

CN(CCCO)c1nccc(Oc2ccc(NC(=O)Nc3cc(C(C)(C)C)nn3-c3ccc(P(C)(C)=O)cc3)c3ccccc23)n1 [Example 30, 1-(3-(tert-Butyl)-1-(4-(dimethylphosphoryl)phenyl)-1H-pyrazol-5-yl)-3-(4-((2-((3-hydroxy-propyl)(methyl)amino)pyrimidin-4-yl)oxy)naphthalen-1-yl)urea]
IC50 (p38 MAPKα): 27 nM | IC50 (c-Src): 795 nM | IC50 (Syk): > 1000 nM | IC50 (GSK3α): > 10000 nM | IC50 (PBMCs [1]): 280 nM

C[Si](C)(C)c1cc(NC(=O)Nc2ccc(Oc3ccnc(Nc4ccccc4)n3)c3ccccc23)n(-c2cccc(CP(C)(C)=O)c2)n1 [Example 35, 1-(1-(3-((Dimethylphosphoryl)methyl)phenyl)-3-(trimethylsilyl)-1H-pyrazol-5-yl)-3-(4-((2-(phenylamino)pyrimidin-4-yl)oxy)naphthalen-1-yl)urea]
IC50 (GSK3α): 1270 nM | IC50 (PBMCs [1]): 7.6 nM | IC50 (PBMCs [2]; [3]): 76.8 nM

CCP(=O)(CC)Cc1cccc(-n2nc(C(C)(C)C)cc2NC(=O)Nc2ccc(Oc3ccnc(Nc4cc(C)c5[nH]ncc5c4)n3)c3ccccc23)c1 [Example 36, 1-(3-(tert-Butyl)-1-(3-((diethylphosphoryl)methyl)phenyl)-1H-pyrazol-5-yl)-3-(4-((2-((7-methyl-1H-indazol-5-yl)amino)pyrimidin-4-yl)oxy)naphthalen-1-yl)urea]
IC50 (p38 MAPKα): 159 nM | IC50 (c-Src): 8 nM | IC50 (Syk): 9 nM | IC50 (GSK3α): 3410 nM | IC50 (PBMCs [1]): 3.5 nM

Cc1cc(Nc2nccc(Oc3ccc(NC(=O)Nc4cc(C(C)C)nn4-c4cccc(CP(C)(C)=O)c4)c4ccccc34)n2)cc2cn[nH]c12 [Example 37, 1-(1-(3-((Dimethylphosphoryl)methyl)phenyl)-3-isopropyl-1H-pyrazol-5-yl)-3-(4-((2-((7-methyl-1H-indazol-5-yl)amino)pyrimidin-4-yl)oxy)naphthalen-1-yl)urea]
IC50 (p38 MAPKα): 70 nM | IC50 (c-Src): 10 nM | IC50 (Syk): 5 nM | IC50 (GSK3α): 4860 nM | IC50 (PBMCs [1]): 3 nM

COc1cc(Nc2cc(Oc3ccc(NC(=O)Nc4cc(C(C)C)nn4-c4cccc(CP(C)(C)=O)c4)c4ccccc34)ccn2)cc(C(=O)NCCN2CCOCC2)c1 [Example 50, 3-((4-((4-(3-(1-(3-((Dimethylphosphoryl)methyl)phenyl)-3-isopropyl-1H-pyrazol-5-yl)-ureido)naphthalen-1-yl)oxy)pyridin-2-yl)amino)-5-methoxy-N-(2-morpholinoethyl)-benzamide]
IC50 (p38 MAPKα): 24 nM | IC50 (GSK3α): 2090 nM | IC50 (PBMCs [1]): 1 nM | IC50 (PBMCs [2]; [3]): 16.1 nM

COc1cc(Nc2cc(Oc3ccc(NC(=O)Nc4cc(C(C)C)nn4-c4cccc(CP(C)(C)=O)c4)c4ccccc34)ccn2)cc(OCCN2CCOCC2)c1 [Example 51, 1-(1-(3-((Dimethylphosphoryl)methyl)phenyl)-3-isopropyl-1H-pyrazol-5-yl)-3-(4-((2-((3-methoxy-5-(2-morpholinoethoxy)phenyl)amino)pyridin-4-yl)oxy)naphthalen-1-yl)urea]
IC50 (p38 MAPKα): 58 nM | IC50 (c-Src): 8 nM | IC50 (GSK3α): 2810 nM | IC50 (PBMCs [1]): 0.5 nM | IC50 (PBMCs [2]; [3]): 6.1 nM

COCCOCCOCCOCCOc1cc(Nc2nccc(Oc3ccc(NC(=O)Nc4cc(C(C)C)nn4-c4cccc(CP(C)(C)=O)c4)c4ccccc34)n2)cc(OC)c1 [Example 52, 1-(4-((2-((3-(2,5,8,11-Tetraoxatridecan-13-yloxy)-5-methoxyphenyl)amino)pyrimidin-4-yl)oxy)naphthalen-1-yl)-3-(1-(3-((dimethylphosphoryl)methyl)phenyl)-3-isopropyl-1H-pyrazol-5-yl)urea]
IC50 (p38 MAPKα): 18 nM | IC50 (c-Src): 3 nM | IC50 (Syk): 4 nM | IC50 (GSK3α): 1190 nM | IC50 (PBMCs [1]): 3.3 nM | IC50 (PBMCs [2]; [3]): 11.6 nM

CC(C)c1cc(NC(=O)Nc2ccc(Oc3ccnc(Nc4cc(C#N)cc(OCCN5CCOCC5)c4)n3)c3ccccc23)n(-c2cccc(CP(C)(C)=O)c2)n1 [Example 57, 1-(4-((2-((3-cyano-5-(2-morpholinoethoxy)phenyl)amino)pyrimidin-4-yl)oxy)-naphthalen-1-yl)-3-(1-(3-((dimethylphosphoryl)methyl)phenyl)-3-isopropyl-1H-pyrazol-5-yl)urea]
IC50 (p38 MAPKα): 21 nM | IC50 (c-Src): 9 nM | IC50 (Syk): 7 nM | IC50 (GSK3α): 1250 nM | IC50 (PBMCs [1]): 2.7 nM | IC50 (PBMCs [2]; [3]): 10.5 nM

CC(C)(C)c1cc(NC(=O)Nc2ccc(Oc3ccnc(Nc4cc(C(=O)NCCN5CCOCC5)cc(C(F)(F)F)c4)n3)c3ccccc23)n(-c2cccc(CP(C)(C)=O)c2)n1 [Example 58, 3-((4-((4-(3-(3-(tert-Butyl)-1-(3-((dimethylphosphoryl)methyl)phenyl)-1H-pyrazol-5-yl)-ureido)naphthalen-1-yl)oxy)pyrimidin-2-yl)amino)-N-(2-morpholinoethyl)-5-(trifluoromethyl)benzamide]
IC50 (p38 MAPKα): 84 nM | IC50 (c-Src): 7 nM | IC50 (Syk): 12 nM | IC50 (GSK3α): 689 nM | IC50 (PBMCs [1]): 1.4 nM | IC50 (PBMCs [2]; IFNγ, read-out: IC50 Values for Inhibition of Cytokine Release, PBMCs IFNγ): 4.8 nM | IC50 (PBMCs [2]; [3]): 62.1 nM
